Test results taken from article PMC11070402, “New antiproliferative 3-substituted oxindoles inhibiting EGFR/VEGFR-2 and tubulin polymerization” (Molecular Diversity, 2023).
“And” between values parts separate entries of the source, which are not always exact repeats. Equal entries are not always repeated. Where two headings read alike, the source gives them in different places.

Key:
[1] = system: 60 human cancer cell lines; assay: NCI one-dose assay against sixty NCI cancer cell lines; assay type: cell-based
Procedure: (§1) All novel scaffolds 6a–j were carefully selected by the National Cancer Institute (NCI), Bethesda, USA, to elucidate their cytotoxic activity versus 60 human cancer cell lines at 10 µM as a single-dose concentration after a 48 h incubation period.
(§2) National Cancer Institution selected all the synthesized 6a–j (NCI), Bethesda, USA, for in vitro one-dose antitumor assay. The methodology protocol for the NCI anticancer screening was reported in detail elsewhere (http://www.dtp.nci.nih.gov). The anticancer assay was performed in full NCI 60 cell lines extracted from nine tumor cell lines, including leukemia, melanoma, lung, colon, CNS, ovarian, renal, prostate, and breast cancer cell lines.

[2] = system: SNB-75 cells (CNS cancer cell line); assay: NCI one-dose assay, SNB-75; assay type: cell-based; conditions: Homo sapiens; SNB-75 (CNS Cancer), 10 uM single dose; read-out: Growth inhibition %
Procedure: as §1, §2

[3] = system: HOP-92 (non-small cell lung cancer cell line); assay: NCI one-dose assay, HOP-92; assay type: cell-based; conditions: Homo sapiens; HOP-92 (Non-Small Cell Lung Cancer), 10 uM single dose; read-out: Growth inhibition %
Procedure: as §1, §2

[4] = system: UO-31; assay: NCI one-dose assay, UO-31; assay type: cell-based; conditions: Homo sapiens; UO-31; 10 µM single dose, 48 h incubation; read-out: cell growth inhibition % (GI %)
Procedure: as §1, §2

[5] = system: K-562; assay: NCI one-dose assay, K-562; assay type: cell-based; conditions: Homo sapiens, K562; K-562; 10 µM single dose, 48 h incubation; read-out: cell growth inhibition % (GI %)
Procedure: as §1, §2

[6] = system: MOLT-4; assay: NCI one-dose assay, MOLT-4; assay type: cell-based; conditions: Homo sapiens; MOLT-4; 10 µM single dose, 48 h incubation; read-out: cell growth inhibition % (GI %)
Procedure: as §1, §2

[7] = system: SR; assay: NCI one-dose assay, SR; assay type: cell-based; conditions: Homo sapiens; SR; 10 µM single dose, 48 h incubation; read-out: cell growth inhibition % (GI %)
Procedure: as §1, §2

[8] = system: A549/ATCC; assay: NCI one-dose assay, A549/ATCC; assay type: cell-based; conditions: Homo sapiens, 10 µM single dose, 48 h incubation, read-out: cell growth inhibition % (GI %)
Procedure: as §1, §2

[9] = system: NCI-H23; assay: NCI one-dose assay, NCI-H23; assay type: cell-based; conditions: Homo sapiens; NCI-H23; 10 µM single dose, 48 h incubation; read-out: cell growth inhibition % (GI %)
Procedure: as §1, §2

[10] = system: SK-MEL-5; assay: NCI one-dose assay, SK-MEL-5; assay type: cell-based; conditions: Homo sapiens; SK-MEL-5; 10 µM single dose, 48 h incubation; read-out: cell growth inhibition % (GI %)
Procedure: as §1, §2

[11] = system: LOX IMVI; assay: NCI one-dose assay, LOX IMVI; assay type: cell-based; conditions: Homo sapiens; LOX IMVI; 10 µM single dose, 48 h incubation; read-out: cell growth inhibition % (GI %)
Procedure: as §1, §2

[12] = system: MCF-7; assay: NCI one-dose assay, MCF-7; assay type: cell-based, human; conditions: MCF-7, 10 µM single dose, 48 h incubation
Procedure: as §1, §2

[13] = system: T-47D; assay: NCI one-dose assay, T-47D; assay type: cell-based; conditions: Homo sapiens, T47D; T-47D; 10 µM single dose, 48 h incubation; read-out: cell growth inhibition % (GI %)
Procedure: as §1, §2

[14] = system: MCF-7 (human breast cancer); assay: Cytotoxicity versus MCF-7 cell line (MTT assay); conditions: MCF7, read-out: MCF-7 (IC50 ± SD, uM)
Procedure: IC50 values were recorded using the Boltzman sigmoidal concentration–response curve equation using the nonlinear regression fitting models by GraphPad, Prism version 5 (GraphPad Software Inc., La Jolla, CA). MTT assay for MCF-7 cell lines. Cell line cells were obtained from American Type Culture Collection. Cells were cultured using DMEM media (Invitrogen/Life Technologies) supplemented with 10% FBS (Hyclone), 10 ug/ml of insulin (Sigma), and 1% penicillin–streptomycin. All the other chemicals and reagents were purchased from Sigma or Invitrogen. Cells were seeded in plates (cells density 1.2–1.8 × 10,000 cells/well) in a volume of 100 μl full-growth medium + 100 μl of the tested scaffold per well in a 96-well plate for 24 h before the application of the MTT assay protocol as reported, supplementary information.

O=C1Nc2cc(Cl)ccc2C1=Cc1ccc(OCC(=O)c2ccc(Br)cc2)cc1 [Compound 6g, 6-Chloro-3-{4-[2-(4-bromophenyl)-2-oxoethoxy]benzylidene}indolin-2-one]
inhibition at 10 µM ([1]; 786-0 (Renal Cancer), 10 uM single dose, read-out: Growth inhibition %): 15.6% | inhibition at 10 µM ([1]; ACHN (Renal Cancer), 10 uM single dose, read-out: Growth inhibition %): 31.2% | inhibition at 10 µM ([1]; BT-549 (Breast Cancer), 10 uM single dose, read-out: Growth inhibition %): 44.3% | inhibition at 10 µM ([1]; CAKI-1 (Renal Cancer), 10 uM single dose, read-out: Growth inhibition %): 47.6% | inhibition at 10 µM ([1]; CCRF-CEM (Leukemia), 10 uM single dose, read-out: Growth inhibition %): 34.3% | inhibition at 10 µM ([1]; COLO 205 (Colon Cancer), 10 uM single dose, read-out: Growth inhibition %): 44.7% | inhibition at 10 µM ([1]; DU-145 (Prostate Cancer), 10 uM single dose, read-out: Growth inhibition %): 12.4% | inhibition at 10 µM ([1]; EKVX (Non-Small Cell Lung Cancer), 10 uM single dose, read-out: Growth inhibition %): 43.8% | inhibition at 10 µM ([1]; HCC-2998 (Colon Cancer), 10 uM single dose, read-out: Growth inhibition %): 17.5% | inhibition at 10 µM ([1]; HCT-15 (Colon Cancer), 10 uM single dose, read-out: Growth inhibition %): 46.9% | inhibition at 10 µM ([1]; HCT-116 (Colon Cancer), 10 uM single dose, read-out: Growth inhibition %): 42.1% | inhibition at 10 µM ([1]; HL-60(TB) (Leukemia), 10 uM single dose, read-out: Growth inhibition %): 53.8% | inhibition at 10 µM ([1]; HS 578T (Breast Cancer), 10 uM single dose, read-out: Growth inhibition %): 22.4% | inhibition at 10 µM ([1]; HT-29, HT29 (Colon Cancer), 10 uM single dose, read-out: Growth inhibition %): 16.1% | inhibition at 10 µM ([1]; IGROV-1, IGROV1 (Ovarian Cancer), 10 uM single dose, read-out: Growth inhibition %): 34.6% | inhibition at 10 µM ([1]; KM12 (Colon Cancer), 10 uM single dose, read-out: Growth inhibition %): 28.7% | inhibition at 10 µM ([1]; M14 (Melanoma), 10 uM single dose, read-out: Growth inhibition %): 31.1% | inhibition at 10 µM ([1]; MALME-3M (Melanoma), 10 uM single dose, read-out: Growth inhibition %): 12.9% | inhibition at 10 µM ([1]; MDA-MB-231, read-out: Growth inhibition %): 23.4% | inhibition at 10 µM ([1]; MDA-MB-435 (Melanoma), 10 uM single dose, read-out: Growth inhibition %): 24.8% | inhibition at 10 µM ([1]; MDA-MB-468 (Breast Cancer), 10 uM single dose, read-out: Growth inhibition %): 42.3% | inhibition at 10 µM ([1]; NCI-H226 (Non-Small Cell Lung Cancer), 10 uM single dose, read-out: Growth inhibition %): 37.9% | inhibition at 10 µM ([1]; NCI-H322M (Non-Small Cell Lung Cancer), 10 uM single dose, read-out: Growth inhibition %): 18.1% | inhibition at 10 µM ([1]; NCI-H460 (Non-Small Cell Lung Cancer), 10 uM single dose, read-out: Growth inhibition %): 41% | inhibition at 10 µM ([1]; NCI-H522 (Non-Small Cell Lung Cancer), 10 uM single dose, read-out: Growth inhibition %): 49.4% | inhibition at 10 µM ([1]; OVCAR-3 (Ovarian Cancer), 10 uM single dose, read-out: Growth inhibition %): 15.7% | inhibition at 10 µM ([1]; OVCAR-4 (Ovarian Cancer), 10 uM single dose, read-out: Growth inhibition %): 44.5% | inhibition at 10 µM ([1]; OVCAR-5 (Ovarian Cancer), 10 uM single dose, read-out: Growth inhibition %): 13.9% | inhibition at 10 µM ([1]; OVCAR-8 (Ovarian Cancer), 10 uM single dose, read-out: Growth inhibition %): 30.7% | inhibition at 10 µM ([1]; PC-3 (Prostate Cancer), 10 uM single dose, read-out: Growth inhibition %): 51.4% | inhibition at 10 µM ([1]; RPMI-8226 (Leukemia), 10 uM single dose, read-out: Growth inhibition %): 43.6% | inhibition at 10 µM ([1]; RXF 393 (Renal Cancer), 10 uM single dose, read-out: Growth inhibition %): 44.8% | inhibition at 10 µM ([1]; SF-268 (CNS Cancer), 10 uM single dose, read-out: Growth inhibition %): 22% | inhibition at 10 µM ([1]; SF-295 (CNS Cancer), 10 uM single dose, read-out: Growth inhibition %): 45.1% | inhibition at 10 µM ([1]; SF-539 (CNS Cancer), 10 uM single dose, read-out: Growth inhibition %): 30.6% | inhibition at 10 µM ([1]; SK-MEL-2 (Melanoma), 10 uM single dose, read-out: Growth inhibition %): 29.8% | inhibition at 10 µM ([1]; SK-MEL-28 (Melanoma), 10 uM single dose, read-out: Growth inhibition %): 19.4% | inhibition at 10 µM ([1]; SN12C (Renal Cancer), 10 uM single dose, read-out: Growth inhibition %): 45.2% | inhibition at 10 µM ([1]; SNB-19 (CNS Cancer), 10 uM single dose, read-out: Growth inhibition %): 18.5% | inhibition at 10 µM ([1]; SW-620 (Colon Cancer), 10 uM single dose, read-out: Growth inhibition %): 14.1% | inhibition at 10 µM ([1]; U-251, U251 (CNS Cancer), 10 uM single dose, read-out: Growth inhibition %): 25.8% | inhibition at 10 µM ([1]; UACC-62 (Melanoma), 10 uM single dose, read-out: Growth inhibition %): 42% | inhibition at 10 µM ([1]; UACC-257 (Melanoma), 10 uM single dose, read-out: Growth inhibition %): 27.1% | inhibition at 10 µM [2]: 31.1% | inhibition at 10 µM [3]: 30.8% | inhibition at 10 µM [4]: 59.4% | inhibition at 10 µM [5]: 58.3% | inhibition at 10 µM [6]: 61.6% | inhibition at 10 µM [7]: 59.7% | inhibition at 10 µM [8]: 49.9% | inhibition at 10 µM [9]: 46.8% | inhibition at 10 µM [10]: 61.2% | inhibition at 10 µM [11]: 45.8% | inhibition at 10 µM ([12]; Homo sapiens, MCF7, 48 h, read-out: cell growth inhibition % (GI %)): 70.3% | cell growth inhibition % (GI %) [12]: 70.03% and 71.12% | inhibition at 10 µM [13]: 55.2% | IC50 [14]: 25.4 ± 1.23 µM
